These results are taken from PMC11875179, “A fucose-binding superlectin from Enterobacter cloacae with high Lewis and ABO blood group antigen specificity” (The Journal of Biological Chemistry, 2024).

A word on the IC50: it is the concentration that inhibits the measured activity by half. By stoichiometry N is commonly meant a count of units in the complex or per binding partner.

Data set [1] addresses T1, Enterobacter cloacae lectin A (EclA) (Enterobacter cloacae, UniProt A0A0H3CQ33). Put plainly: competitive fluorescence polarization; thermal shift (Tm […] to […] °C). It is filed as binding. Also on record: gene ECL_04191; full-length EclA and EclA-C (amino acids 140–283). Background: In fluorescence polarisation assays a small probe gives low polarisation when free and higher when bound to something large.

In data set [2] the target is T1, Enterobacter cloacae lectin A (EclA). Put plainly: competitive fluorescence polarization displacement of […]. It counts as binding. Details: gene ECL_04191; full-length EclA and EclA-C (amino acids 140–283).
Data set [3] concerns the molecule itself. Put plainly: dynamic light scattering; Zetasizer Nano-ZS; 100 uM EclA-L or 200 uM EclA-N-tag and EclA-C in TBS/Ca (20 mM Tris, 137 mM NaCl, 2.6 mM KCl, pH 7.4, 1 mM CaCl2), 25 C; molecular weight estimated from the hydrodynamic radius.

T1 sequence (A0A0H3CQ33 entry or part of it): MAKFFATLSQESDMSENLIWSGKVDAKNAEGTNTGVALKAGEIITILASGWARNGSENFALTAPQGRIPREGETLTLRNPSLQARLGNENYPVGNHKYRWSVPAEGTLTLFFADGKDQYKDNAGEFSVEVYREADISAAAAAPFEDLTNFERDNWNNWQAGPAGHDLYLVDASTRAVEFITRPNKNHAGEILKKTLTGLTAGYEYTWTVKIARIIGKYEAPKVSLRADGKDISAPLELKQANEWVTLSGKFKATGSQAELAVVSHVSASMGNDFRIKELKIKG

For `C[C@@H]1OC(O)[C@@H](O)[C@H](O)[C@@H]1O` (stereo partly drawn) [compound 1, L-fucose], the concentration for half-maximal inhibition (IC50) in data set [1] lay within 4000 to 4700 µM.
As to `CO[C@@H]1O[C@@H](C)[C@@H](O)[C@@H](O)[C@@H]1O` [compound 12, methyl α-L-fucoside], the 50% inhibitory concentration (IC50) in data set [2] is 1300 to 1400 µM.
The molecule `CO[C@H]1O[C@@H](C)[C@@H](O)[C@@H](O)[C@@H]1O` [compound 13, methyl β-L-fucoside] returned a half-inhibitory concentration (IC50) in data set [2] of 1500 to 1800 µM.

B1: EclA-C, native EclA C terminus (amino acids 140-283) (domain or fragment)
chain: MAAPFEDLTNFERDNWNNWQAGPAGHDLYLVDASTRAVEFITRPNKNHAGEILKKTLTGLTAGYEYTWTVKIARIIGKYEAPKVSLRADGKDISAPLELKQANEWVTLSGKFKATGSQAELAVVSHVSASMGNDFRIKELKIKG
notes: EclA, E. cloacae subsp. cloacae ATCC 13047, stated as amino acids 140-283 (144 aa); Tag-free; a selenomethionine-labelled form was also crystallised; also called C-terminal domain of EclA; source: E. coli BL21(DE3), purified (fucose-coupled sepharose, L-fucose elution)
Take B1: the “stoichiometry N” value in data set [3] was 2.

B2: EclA-N-tag, N-terminally His6-tagged EclA N terminus (amino acids 2-140) (domain or fragment)
chain: AKFFATLSQESDASENLIWSGKVDAKNAEGTNTGVALKAGEIITILASGWARNGSENFALTAPQGRIPREGETLTLRNPSLQARLGNENYPVGNHKYRWSVPAEGTLTLFFADGKDQYKDNAGEFSVEVYREADISAAA
notes: EclA, E. cloacae subsp. cloacae ATCC 13047, residues 2-140, based on EclA-L (M14A); also called N-terminal domain of EclA; not shown: His6, N-terminal, kept
With B2, the “stoichiometry N” value in data set [3] is 2.

B3: EclA-L (EclA-M14A), full-length Enterobacter cloacae lectin A with the second start codon mutated (natural protein)
chain: MAKFFATLSQESDASENLIWSGKVDAKNAEGTNTGVALKAGEIITILASGWARNGSENFALTAPQGRIPREGETLTLRNPSLQARLGNENYPVGNHKYRWSVPAEGTLTLFFADGKDQYKDNAGEFSVEVYREADISAAAAAPFEDLTNFERDNWNNWQAGPAGHDLYLVDASTRAVEFITRPNKNHAGEILKKTLTGLTAGYEYTWTVKIARIIGKYEAPKVSLRADGKDISAPLELKQANEWVTLSGKFKATGSQAELAVVSHVSASMGNDFRIKELKIKG
notes: EclA (Enterobacter cloacae lectin A), E. cloacae subsp. cloacae ATCC 13047, ECL_04191, 283 aa, with M14A; Tag-free, pET22b; Made to have one protein species only (second ATG at codon 14 removed); also called EclA-L (M14A); source: E. coli, expressed and purified as reported for EclA
On to B3, for which the “stoichiometry N” value in data set [3] is 2.
